Data from article PMC10046901, “Molecular Analysis of the Superior Efficacy of a Dual Epidermal Growth Factor Receptor (EGFR)-DNA-Targeting Combi-Molecule in Comparison with Its Putative Prodrugs 6-Mono-Alkylamino- and 6,6-Dialkylaminoquinazoline in a Human Osteosarcoma Xenograft Model” (Cells, 2023).
“Also recorded” adds a separate entry of the source.

Assays:
[1] = system: Saos-2 osteosarcoma xenograft; experiment: Saos-2 xenograft tumor growth (caliper, CT); type: in vivo, NSG male mice; conditions: 80 mg/kg oral gavage every other day for 20 days; end of treatment
Experimental: Animal experiments were executed in accordance with a protocol approved by the McGill Institutional Animal Care Committee (McGill University Health Centre Research Institute and McGill University, Montreal, Canada). Xenografts of the tumors were obtained via unilateral and subcutaneous injection (5 × 10^6 cells in 100 µL of a PBS1x solution) into immunodeficient NSG male mice (N = 28; 8 weeks old; weight = 30 g; Charles River, Canada). The mice were maintained at optimal temperature (24 °C) and relative humidity (50%) on a 12/12-light/dark cycle with free access to water and food. The mice were monitored clinically every day; body weights were recorded and tumor volumes were measured with a caliper using the formula 4/3 π (length/2) (width/2)^2 every other day. Once tumors reached 68 mm^3, the mice were randomly divided into 4 groups: 1 was treated with ZR2002 (N = 7), another was treated with JS84 (N = 7), another was treated with JS61 (N = 7) and the last was treated with a vehicle (N = 7). […]
All PET/CT experiments were performed using nanoScan PET/CT for small animals (Mediso Medical Imaging Systems, Budapest, Hungary). […] The mice were kept awake for 45 min before the scans and weighed, and glycemia was measured in blood drawn from the caudal artery. […] Temperature and heart rate were monitored throughout the procedure using the Mediso system. […] The CT volume-of-interest (VOI) was drawn manually on the CT and PET co-registered images. ^18F-FDG accumulation was quantified as the mean standardized uptake value (SUV) between 20 and 30 min post-injection in a 3D volume-of-interest (VOI), which was named the metabolic volume (MV), delineated semi-automatically with iso-contours at a 40% threshold of the maximal SUV [30] in the tumor on PET/CT fusion slices using the PMOD software package v3.6 (PMOD Technologies Ltd., Zürich, Switzerland). In addition, another tumor volume-based parameter, called total lesion glycolysis (TLG), was calculated according to the product between the MV and the mean SUV. […]

[2] = system: panel of osteosarcoma cells (U2-OS, Saos-2, MG-63, MNNG/HOS, KHOS/NP); experiment: Growth inhibition assay across panel of osteosarcoma cell lines; type: cell-based; conditions: for IC50: range over five osteosarcoma cell lines
[3] = system: KHOS/NP; experiment: cells; type: cell-based; conditions: Homo sapiens, 120 h, read-out: IC50 growth inhibition
[4] = system: U2-OS; experiment: cells; type: cell-based; conditions: Homo sapiens, U2OS, 120 h, read-out: IC50 growth inhibition
[5] = system: MNNG/HOS; experiment: cells; type: cell-based; conditions: 120 h, read-out: IC50 growth inhibition
[6] = system: ɣ-H2AX phosphorylation; experiment: P-H2AX in tumor tissue (immunohistochemistry, Western blot); type: in vivo, human; conditions: tumors 3 h after last dose, 80 mg/kg, N = 4
Experimental: In order to study the drug pharmacokinetics, 1 last dose (the 11th dose) was administered 3 h prior to sacrifice and after a break of 5 days from the previous drug administration.
At the end of the study, the mice were sacrificed, and the plasma and tumors were collected. The plasma was stored at −80 °C, and the tumor tissues were transversely cut into 2 parts: 1 was immediately frozen in liquid nitrogen and stored at −80 °C for Western blots and LC-MS analysis; the other was fixed in 4% paraformaldehyde and used for histology.
The tumors were fixed for 36 h in 4% paraformaldehyde, transferred to 70% EtOH and paraffin-embedded. Sections 4 µm thick were deparaffinized, rehydrated and incubated for 20 min at 37 °C with anti-P-EGFR (1–100, ab40815, Abcam, Cambridge, UK) or anti-P-H2AX (1–100, sc-517348, Santa Cruz Biotechnology, Dallas, TX, USA), followed by secondary Ab incubation with OmniMap anti-Rb HRP (760–4311, Roche, Basel, Switzerland) at room temperature for 16 min, followed by the detection kit ChromoMap Kit (760–4304, Roche, Basel, Switzerland), and the slides were then counterstained with hematoxylin, dehydrated, cleared and cover-slipped. The slides were digitally scanned using an Aperio scanner scope XT.
The tumor tissue samples were smashed with liquid nitrogen into a mortar, and the tumor powders were transferred to cold RIPA 1x buffer with an anti-protease and anti-phosphatase inhibitor cocktail (Roche, Basel, Switzerland) in ice for 1 h and sonicated. After centrifugation, the proteins were quantified and mixed in Laemmli buffer (Sigma-Aldrich, St. Louis, MO, USA), maintaining the same concentration.
Cell lysates or tissue lysates were loaded onto 4–20% SDS-PAGE gels (mini-protean TGx stain-free, Bio-Rad, Hercules, CA, USA) and transferred to PVDF membranes that were pre-wetted with methanol. […] The quantification of the immunoblots was performed on digitalized images using ImageLab Software 6.1 (Bio-Rad, Hercules, CA, USA). […]

| SMILES | tumor size / growth inhibition vs vehicle (caliper and CT scan) [1] | IC50 [2] [nM] | fold more potent than JS61 ([2]; ratio of IC50 values across the panel) | IC50 [3] [nM] | IC50 [4] [nM] | IC50 [5] [nM] | ɣ-H2AX phosphorylation in tumors vs control [6] |
| --- | --- | --- | --- | --- | --- | --- | --- |
| ClCCNc1ccc2ncnc(Nc3cccc(Br)c3)c2c1 [ZR2002] | significantly reduced | 80 to 450 | 17–36 fold | 190 ± 30 | 80 ± 10 | 310 ± 90 | enhanced in comparison with the control, even if it was not statistically significant |
| CN(CCCl)c1ccc2ncnc(Nc3cccc(Br)c3)c2c1 [JS84] | no significant growth inhibition; also recorded: minor antitumor activity | 180 to 5040 |  | 1380 ± 300 | 180 ± 30 | 880 ± 430 | low levels of H2AX phosphorylation |
| ClCCN(CCCl)c1ccc2ncnc(Nc3cccc(Br)c3)c2c1 [JS61] | no significant growth inhibition | 1390 to 12500 |  | 6830 ± 500 | 1390 ± 20 | 5860 ± 150 | low levels of H2AX phosphorylation |
